Assay results published in US20100016440A1, “ALPHA-AMINOAMIDE DERIVATIVES USEFUL AS ANTI-INFLAMMATORY AGENTS” (NEWRON PHARMACEUTICALS S.P.A., priority 2003, published 2010).

Columns and labels:
[1] = test system: paw edema induced by carrageenan; test: Paw edema carrageenan-induced inflammation; type: in vivo, rat; conditions: for volume of paw edema (mean Δml ± s.e. vs basal paw volume): 60' after carrageenan, po 1 h before carrageenan, male Wistar rats; for volume of paw edema (mean Δml ± s.e. vs basal paw volume) / reduction of edema vs. the control vehicle (inhibition): Compound A 30 mg/kg, indomethacin 5 mg/kg; for reduction of edema vs. the control vehicle (inhibition): 4 h after carrageenan injection, oral
Source text: The anti-inflammatory activity of the α-aminoamide compounds of formula (I) have proven effective in a rat model of inflammation induced by carrageenan injection.
The potential anti-inflammatory effect of (S)-(+)-2-[4-(2-fluorobenzyloxy)-benzylamino]-propanamide (“compound A”) was investigated in the rat model of inflammatory acute pain induced by subplantar injection of carrageenan. Itraplantar injection of carrageenan elicit a time-dependent increase in paw volume.
Male Wistar rats of 175-200 grams were used. The left hind paw was injected with 100 μl of carrageenan (2% w/v in saline). Compound A (30 mg/kg), indomethacin (5 mg/kg), or control vehicle (such as distilled water) were orally administered 1 h before carrageenan injection. The paw volume was measured with a plethysmometer (Ugo Basile) immediately before (basal) and 1, 2, 3, 4 and 5 h after the carrageenan injection.

[2] = test system: KCl-evoked SP release from spinal cord superfused synaptosomes; test: Substance P (SP) release from rat spinal cord synaptosomes; type: cell-based; conditions: KCl (35 mM) evoked, RIA, concentrations 0.1 to 30 μM, read-out: IC50 for reducing evoked SP release
Protocol: Male adult Sprague-Dawley rats were used. Following decapitation, the spinal cord was removed and homogenized in sucrose buffer 0.32 M pH 7.4. Samples were centrifuged at 12000 g for 20 minutes and the synaptosomal fraction was resuspended in physiological buffer. SP release from spinal cord superfused synaptosomes was induced by KCl (35 mM) and measured by RIA method (see Lee C M. et al. (1980) “The development and application of a novel N-terminal directed substance P antiserum”, Life Science 27 (7):535-543).

[3] = test system: inflamed joint induced by carrageenan; conditions: cited from earlier work

| SMILES | volume of paw edema (mean Δml ± s.e. vs basal paw volume) [1] [mL] | reduction of edema vs. the control vehicle (inhibition) [1] | paw edema formation (in words) ([1]; Compound A 30 mg/kg oral, 1-5 h after carrageenan) | IC50 [2] [nM] | mechanical hyperalgesia (in words) [3] | swelling and stiffness of the inflamed joint (in words) [3] |
| --- | --- | --- | --- | --- | --- | --- |
| COc1ccc2c(c1)c(CC(=O)O)c(C)n2C(=O)c1ccc(Cl)cc1 [Indomethacin, indomethacin] | 0.29 ± 0.04 | about 50% |  |  |  |  |
| C[C@H](NCc1ccc(OCc2ccccc2F)cc1)C(N)=O [Compound A, (S)-(+)-2-[4-(2-fluorobenzyloxy)-benzylamino]-propanamide] | 0.19 ± 0.03 | 40% | prevented paw edema formation at all time points considered | 2120 |  |  |
| C[C@@H](CN1CC[C@@]2(C)c3cccc(O)c3C[C@@H]1C2(C)C)OCc1ccccc1 [crobenetine] |  |  |  |  | able to reverse the mechanical hyperalgesia | without any effect |
| Cc1cccc(C)c1OCC(C)N (stereo not shown) [mexeletine] |  |  |  |  | able to reverse the mechanical hyperalgesia | without any effect |
